Reference: patent EP0565593B1, “REDUCING PESTICIDAL INTERACTIONS IN CROPS” (priority 1990, dated 1992)
Read-outs that look alike come from different tables or passages of the source.

What was measured:
Velvetleaf (VELE) [1] = assay: whole plant or invertebrate; type: in vivo, Abutilon theophrasti
Giant foxtail (GIFT) = assay: whole plant or invertebrate; type: in vivo
Velvetleaf (VELE) [2] = type: in vivo, Abutilon theophrasti; settings: […]
Corn [3] = settings: […]
Shattercane (SHCA) = type: in vivo; settings: […]
Corn [4] = test system: Corn
[5] = […], PPI, 13 days after PPI (Table 31)
[6] = observed 9 days later (Table 29)
[7] = observed 9 days later (Table 30)
[8] = […], PPI, 14 days after PPI (Table 34)
[9] = observed 8 days later (Table 32)
[10] = observed 8 days later (Table 33)
[11] = observed 7 days after POE (Table 35)
[12] = observed 7 days after POE (Table 36)

Row | Compound | % Inhibition VELE (Velvetleaf (VELE) [1]; [5]) [%] | % Inhibition GIFT (Giant foxtail (GIFT); [5]) [%] | % Inhibition VELE (Velvetleaf (VELE) [2]; [6]) [%] | % Inhibition VELE (Velvetleaf (VELE) [2]; [7]) [%] | % Inhibition Corn (Corn [3]; [6]) [%] | % Inhibition Corn (Corn [3]; [7]) [%] | % Inhibition SHCA (Shattercane (SHCA); [6]) [%] | % Inhibition SHCA (Shattercane (SHCA); [7]) [%] | % Inhibition Corn (Corn [4]; [5]) [%] | % Inhibition VELE (Velvetleaf (VELE) [1]; in vivo) [%] | % Inhibition GIFT (Giant foxtail (GIFT); in vivo) [%] | % Inhibition VELE (Velvetleaf (VELE) [2]; [11]) [%] | % Inhibition VELE (Velvetleaf (VELE) [2]; [12]) [%] | % Inhibition Corn (Corn [3]; [11]) [%] | % Inhibition Corn (Corn [3]; [12]) [%] | % Inhibition SHCA (Shattercane (SHCA); [11]) [%] | % Inhibition SHCA (Shattercane (SHCA); [12]) [%] | % Inhibition Corn (Corn [4]; in vivo) [%] | also measured
1 | CC(C)CC1c2ccccc2CCN1C(=O)C(Cl)Cl (stereo not drawn) [compound 41] | 80 | 90 | 90 | 70 | 25 | 45 | 80 | 30 | 60 |  |  |  |  |  |  |  |  |  | 
2 | O=C(COC(c1ccccc1)c1cccc(C(F)(F)F)c1)OCC(F)(F)F (stereo not drawn) [compound 53] |  |  |  |  |  |  |  |  |  |  |  |  |  |  |  |  |  |  | % Inhibition VELE (Velvetleaf (VELE) [1]; [8]): 100%; % Inhibition GIFT (Giant foxtail (GIFT); [8]): 70%; % Inhibition VELE (Velvetleaf (VELE) [2]; [9]): 85%; % Inhibition VELE (Velvetleaf (VELE) [2]; [10]): 70%; % Inhibition Corn (Corn [3]; [9]): 50%; % Inhibition Corn (Corn [3]; [10]): 50%; % Inhibition SHCA (Shattercane (SHCA); [9]): 80%; % Inhibition SHCA (Shattercane (SHCA); [10]): 25%; % Inhibition Corn (Corn [4]; [8]): 60%
3 | O=C(C(Cl)Cl)N1CCN(C(=O)C(Cl)Cl)CC1 [compound 3] | 95 | 75 | 95 | 70 | 35 | 60 | 70 | 40 | 55 |  |  |  |  |  |  |  |  |  | 
4 | O=C(O)c1sc(Cl)nc1C(F)(F)F [compound 65] |  |  |  |  |  |  |  |  |  | 90 | 70 | 80 | 65 | 25 | 50 | 70 | 30 | 45 | 
5 | C[n+]1cccc(C2CN(C(=O)C(Cl)Cl)C(C)(C)O2)c1 (stereo not drawn) [compound 37] | 85 | 80 | 90 | 75 | 65 | 50 | 80 | 35 | 60 |  |  |  |  |  |  |  |  |  | 
6 | Cc1ccc(SC2(C#N)CC2)cc1C [compound 73] |  |  |  |  |  |  |  |  |  | 90 | 90 | 75 | 70 | 70 | 70 | 70 | 35 | 70 | 
7 | O=C(O)COc1cc(C(F)(F)F)cc(C(F)(F)F)c1 [compound 71] |  |  |  |  |  |  |  |  |  | 90 | 70 | 85 | 75 | 20 | 45 | 65 | 30 | 30 | 
8 | NC(=S)COC(c1ccccc1)c1ccccc1 [compound 46] |  |  |  |  |  |  |  |  |  |  |  |  |  |  |  |  |  |  | % Inhibition VELE (Velvetleaf (VELE) [1]; [8]): 85%; % Inhibition GIFT (Giant foxtail (GIFT); [8]): 60%; % Inhibition VELE (Velvetleaf (VELE) [2]; [9]): 90%; % Inhibition VELE (Velvetleaf (VELE) [2]; [10]): 70%; % Inhibition Corn (Corn [3]; [9]): 50%; % Inhibition Corn (Corn [3]; [10]): 55%; % Inhibition SHCA (Shattercane (SHCA); [9]): 70%; % Inhibition SHCA (Shattercane (SHCA); [10]): 25%; % Inhibition Corn (Corn [4]; [8]): 65%
9 | O=C(C(Cl)Cl)N1CC(c2ccco2)OC1c1ccccc1 (stereo not drawn) [compound 36] | 90 | 75 | 100 | 80 | 45 | 45 | 75 | 35 | 60 |  |  |  |  |  |  |  |  |  | 
